From US9469650B2, “Melampomagnolide B derivatives” (BOARD OF TRUSTEES OF THE UNIVERSITY OF ARKANSAS, priority 2013, dated 2016)
Read-outs that look alike come from different tables or passages of the source.

Experiments:
MOLT-4 = test: panel of 60 human tumor cell lines, growth inhibition (Leukemia); details: MOLT-4
SK-MEL-2 = test: panel of 60 human tumor cell lines, growth inhibition (Melanoma); details: SK-MEL-2
SK-MEL-28 = test: as above; details: SK-MEL-28
UACC-62 = test: as above; details: UACC-62
SF-539 = test: panel of 60 human tumor cell lines, growth inhibition (CNS Cancer); details: SF-539
SNB-19 = test: as above; details: SNB-19
COLO 205 = test: panel of 60 human tumor cell lines, growth inhibition (Colon Cancer); details: COLO 205
A498 = test: panel of 60 human tumor cell lines, growth inhibition (Renal Cancer); details: A498
CAKI-1 = test: as above; details: CAKI-1
RXF 393 = test: as above; details: RXF 393
MDA-MB-468 = test: panel of 60 human tumor cell lines, growth inhibition (Breast Cancer); details: MDA-MB-468
IGROV1 = test: panel of 60 human tumor cell lines, growth inhibition (Ovarian Cancer); details: IGROVI
NCI/ADR-RES = test: as above
PC-3 = test: panel of 60 human tumor cell lines, growth inhibition (Prostate Cancer); details: PC-3
DU-145 = test: as above; details: DU-145
HOP-92 = test: panel of 60 human tumor cell lines, growth inhibition (Non-Small Cell Lung Cancer); details: HOP-92
NCI-H23 = test: as above; details: NCI-H23

C=C1C(=O)O[C@H]2[C@H]1CC/C(COC(=O)NCCO)=C\CC[C@@]1(C)O[C@@H]21 [JVM 2-50]
Percent Growth (HL-60(TB); Log10 Concentration −4.0): −48%
Percent Growth (HL-60(TB); Log10 Concentration −5.0): 9%
Percent Growth (HL-60(TB); Log10 Concentration −6.0): 111%
Percent Growth (HL-60(TB); Log10 Concentration −7.0): 109%
Percent Growth (HL-60(TB); Log10 Concentration −8.0): 106%
GI50 (HL-60(TB); NCI five dose): 3.99 µM
CC50 (HL-60(TB); read-out: LC50, NCI five dose): > 100 µM
Percent Growth (MOLT-4; Log10 Concentration −4.0): −39%
Percent Growth (MOLT-4; Log10 Concentration −5.0): 43%
Percent Growth (MOLT-4; Log10 Concentration −6.0): 103%
Percent Growth (MOLT-4; Log10 Concentration −7.0): 114%
Percent Growth (MOLT-4; Log10 Concentration −8.0): 106%
GI50 (MOLT-4; NCI five dose): 7.65 µM
Percent Growth (SK-MEL-2; Log10 Concentration −4.0): −54%
Percent Growth (SK-MEL-2; Log10 Concentration −5.0): 83%
Percent Growth (SK-MEL-2; Log10 Concentration −6.0): 115%
Percent Growth (SK-MEL-2; Log10 Concentration −7.0): 116%
Percent Growth (SK-MEL-2; Log10 Concentration −8.0): 106%
GI50 (SK-MEL-2; NCI five dose): 18.5 µM
TGI (SK-MEL-2; NCI five dose): 4.18E−5
Percent Growth (SK-MEL-28; Log10 Concentration −4.0): −61%
Percent Growth (SK-MEL-28; Log10 Concentration −5.0): 48%
Percent Growth (SK-MEL-28; Log10 Concentration −6.0): 99%
Percent Growth (SK-MEL-28; Log10 Concentration −7.0): 104%
Percent Growth (SK-MEL-28; Log10 Concentration −8.0): 95%
GI50 (SK-MEL-28; NCI five dose): 9.33 µM
TGI (SK-MEL-28; NCI five dose): 2.77E−5
Percent Growth (UACC-62; Log10 Concentration −4.0): −84%
Percent Growth (UACC-62; Log10 Concentration −5.0): 62%
Percent Growth (UACC-62; Log10 Concentration −6.0): 97%
Percent Growth (UACC-62; Log10 Concentration −7.0): 93%
Percent Growth (UACC-62; Log10 Concentration −8.0): 93%
GI50 (UACC-62; NCI five dose): 12 µM
TGI (UACC-62; NCI five dose): 2.65E−5
Percent Growth (SF-539; Log10 Concentration −4.0): −85%
Percent Growth (SF-539; Log10 Concentration −5.0): 54%
Percent Growth (SF-539; Log10 Concentration −6.0): 93%
Percent Growth (SF-539; Log10 Concentration −7.0): 95%
Percent Growth (SF-539; Log10 Concentration −8.0): 95%
GI50 (SF-539; NCI five dose): 10.8 µM
TGI (SF-539; NCI five dose): 2.46E−5
Percent Growth (SNB-19; Log10 Concentration −4.0): 19%
Percent Growth (SNB-19; Log10 Concentration −5.0): 84%
Percent Growth (SNB-19; Log10 Concentration −6.0): 95%
Percent Growth (SNB-19; Log10 Concentration −7.0): 93%
Percent Growth (SNB-19; Log10 Concentration −8.0): 99%
GI50 (SNB-19; NCI five dose): 32.6 µM
TGI (SNB-19; NCI five dose): >1.00E−4
Percent Growth (COLO 205; Log10 Concentration −4.0): −80%
Percent Growth (COLO 205; Log10 Concentration −5.0): 21%
Percent Growth (COLO 205; Log10 Concentration −6.0): 108%
Percent Growth (COLO 205; Log10 Concentration −7.0): 106%
Percent Growth (COLO 205; Log10 Concentration −8.0): 96%
GI50 (COLO 205; NCI five dose): 4.87 µM
TGI (COLO 205; NCI five dose): 1.62E−5
Percent Growth (A498; Log10 Concentration −4.0): −25%
Percent Growth (A498; Log10 Concentration −5.0): 58%
Percent Growth (A498; Log10 Concentration −6.0): 60%
Percent Growth (A498; Log10 Concentration −7.0): 68%
Percent Growth (A498; Log10 Concentration −8.0): 74%
GI50 (A498; NCI five dose): 12.4 µM
TGI (A498; NCI five dose): 5.01E−5
Percent Growth (CAKI-1; Log10 Concentration −4.0): −65%
Percent Growth (CAKI-1; Log10 Concentration −5.0): 48%
Percent Growth (CAKI-1; Log10 Concentration −6.0): 87%
Percent Growth (CAKI-1; Log10 Concentration −7.0): 91%
Percent Growth (CAKI-1; Log10 Concentration −8.0): 89%
GI50 (CAKI-1; NCI five dose): 8.99 µM
TGI (CAKI-1; NCI five dose): 2.67E−5
Percent Growth (RXF 393; Log10 Concentration −4.0): −68%
Percent Growth (RXF 393; Log10 Concentration −5.0): 20%
Percent Growth (RXF 393; Log10 Concentration −6.0): 98%
Percent Growth (RXF 393; Log10 Concentration −7.0): 93%
Percent Growth (RXF 393; Log10 Concentration −8.0): 91%
GI50 (RXF 393; NCI five dose): 4.14 µM
TGI (RXF 393; NCI five dose): 1.69E−5
Percent Growth (MDA-MB-468; Log10 Concentration −4.0): −67%
Percent Growth (MDA-MB-468; Log10 Concentration −5.0): −12%
Percent Growth (MDA-MB-468; Log10 Concentration −6.0): 67%
Percent Growth (MDA-MB-468; Log10 Concentration −7.0): 91%
Percent Growth (MDA-MB-468; Log10 Concentration −8.0): 98%
GI50 (MDA-MB-468; NCI five dose): 1.64 µM
TGI (MDA-MB-468; NCI five dose): 7.01E−6
Percent Growth (IGROV1; Log10 Concentration −4.0): −36%
Percent Growth (IGROV1; Log10 Concentration −5.0): 49%
Percent Growth (IGROV1; Log10 Concentration −6.0): 109%
Percent Growth (IGROV1; Log10 Concentration −7.0): 106%
Percent Growth (IGROV1; Log10 Concentration −8.0): 95%
GI50 (IGROV1; NCI five dose): 9.79 µM
TGI (IGROV1; NCI five dose): 1.80E−5
Percent Growth (NCI/ADR-RES; Log10 Concentration −4.0): 16%
Percent Growth (NCI/ADR-RES; Log10 Concentration −5.0): 105%
Percent Growth (NCI/ADR-RES; Log10 Concentration −6.0): 106%
Percent Growth (NCI/ADR-RES; Log10 Concentration −7.0): 113%
Percent Growth (NCI/ADR-RES; Log10 Concentration −8.0): 108%
GI50 (NCI/ADR-RES; NCI five dose): 41.5 µM
TGI (NCI/ADR-RES; NCI five dose): >1.00E−4
Percent Growth (PC-3; Log10 Concentration −4.0): −21%
Percent Growth (PC-3; Log10 Concentration −5.0): 94%
Percent Growth (PC-3; Log10 Concentration −6.0): 97%
Percent Growth (PC-3; Log10 Concentration −7.0): 93%
Percent Growth (PC-3; Log10 Concentration −8.0): 98%
GI50 (PC-3; NCI five dose): 24.1 µM
TGI (PC-3; NCI five dose): 6.57E−5
Percent Growth (DU-145; Log10 Concentration −4.0): −92%
Percent Growth (DU-145; Log10 Concentration −5.0): 60%
Percent Growth (DU-145; Log10 Concentration −6.0): 107%
Percent Growth (DU-145; Log10 Concentration −7.0): 106%
Percent Growth (DU-145; Log10 Concentration −8.0): 108%
GI50 (DU-145; NCI five dose): 11.6 µM
TGI (DU-145; NCI five dose): 2.47E−5
Percent Growth (HOP-92; Log10 Concentration −4.0): −88%
Percent Growth (HOP-92; Log10 Concentration −5.0): 13%
Percent Growth (HOP-92; Log10 Concentration −6.0): 94%
Percent Growth (HOP-92; Log10 Concentration −7.0): 86%
Percent Growth (HOP-92; Log10 Concentration −8.0): 90%
GI50 (HOP-92; NCI five dose): 3.49 µM
TGI (HOP-92; NCI five dose): 1.35E−5
Percent Growth (NCI-H23; Log10 Concentration −4.0): −53%
Percent Growth (NCI-H23; Log10 Concentration −5.0): 67%
Percent Growth (NCI-H23; Log10 Concentration −6.0): 100%
Percent Growth (NCI-H23; Log10 Concentration −7.0): 102%
Percent Growth (NCI-H23; Log10 Concentration −8.0): 98%
GI50 (NCI-H23; NCI five dose): 13.8 µM
TGI (NCI-H23; NCI five dose): 3.61E−5
